Results published in US8101386B2, “Escherichia coli strains which over-produce L-threonine and processes for the production of L-threonine by fermentation” (Archer Daniels Midland Company, priority 2000, dated 2012).

Tests used:
E. coli strain G909 = experiment: CPCA resistance test: growth in minimal medium E with CPCA; assay type: cell-based; details: 24 hr, 36° C.
Description: (§1) To test for CPCA resistance, each strain was cultivated in 20 ml of the seed medium SM (32.5 g/L glucose; 1 g/L MgSO4 7H2O; 24.36 g/L K2HPO4; 9.52 g/L KH2PO4; 5 (NH4)2SO4; 15 g/L yeast extract; pH 7.2) at 36° C. for 17 hr with shaking. The cells were harvested and washed with minimal medium E. The cell suspension was then inoculated into a sterilized tube containing 3 ml of minimal medium E and 0, 0.1, 0.5, or 1 mM CPCA. After 24 hr cultivation as 36° C. with shaking, growth was determined by measuring the optical density at 660 nm. The results are shown below in Table 1 relative to growth in the absence of CPCA.

E. coli strain 6-8 = experiment: as above; assay type: cell-based; parameters: unit not given here; details: 24 hr, 36° C.
Description: as §1

threonyl tRNA-synthetase = threonyl tRNA-synthetase (Escherichia coli, UniProt P0A8M3); details: G. Nass et al. 1969; cited from earlier work
E. coli = details: G. Nass et al. 1969; cited from earlier work

Sequence of threonyl tRNA-synthetase (P0A8M3 whole entry): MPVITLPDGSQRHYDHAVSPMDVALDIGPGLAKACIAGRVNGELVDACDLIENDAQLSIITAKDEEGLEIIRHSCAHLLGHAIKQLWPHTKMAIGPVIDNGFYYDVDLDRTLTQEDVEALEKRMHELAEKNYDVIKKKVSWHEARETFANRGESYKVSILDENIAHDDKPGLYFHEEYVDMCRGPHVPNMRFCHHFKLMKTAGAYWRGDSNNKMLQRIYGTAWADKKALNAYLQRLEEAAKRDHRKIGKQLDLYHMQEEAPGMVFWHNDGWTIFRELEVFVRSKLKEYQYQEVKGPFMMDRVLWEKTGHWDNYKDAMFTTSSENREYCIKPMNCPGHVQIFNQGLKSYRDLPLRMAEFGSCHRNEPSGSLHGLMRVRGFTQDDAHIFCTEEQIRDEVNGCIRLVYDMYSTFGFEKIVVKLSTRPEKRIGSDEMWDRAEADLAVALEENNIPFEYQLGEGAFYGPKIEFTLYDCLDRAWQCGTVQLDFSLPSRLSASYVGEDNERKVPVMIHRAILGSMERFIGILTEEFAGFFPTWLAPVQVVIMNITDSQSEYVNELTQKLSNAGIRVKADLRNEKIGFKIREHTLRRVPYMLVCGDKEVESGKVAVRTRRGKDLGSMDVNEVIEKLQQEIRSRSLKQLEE

With O=C(O)C1CCCC1 [CPCA, cyclopentanecarboxylic acid] the “growth (optical density at 660 nm) relative to growth in the absence of CPCA” value (E. coli strain G909; 0.1 mM CPCA) was 24.2, the “growth (optical density at 660 nm) relative to growth in the absence of CPCA” value (E. coli strain G909; 0.5 mM CPCA) was 2.9 and the “growth (optical density at 660 nm) relative to growth in the absence of CPCA” value (E. coli strain G909; 1 mM CPCA) was 0.9. The “growth (optical density at 660 nm) relative to growth in the absence of CPCA” value (E. coli strain 6-8; 0.1 mM CPCA) was 134.5, the “growth (optical density at 660 nm) relative to growth in the absence of CPCA” value (E. coli strain 6-8; 0.5 mM CPCA) was 141.0 and the “growth (optical density at 660 nm) relative to growth in the absence of CPCA” value (E. coli strain 6-8; 1 mM CPCA) was 184.5.

For C[C@@H]1C[C@H](C)C[C@H](C)[C@@H](O)CC(=O)O[C@H]([C@@H]2CCC[C@H]2C(=O)O)C/C=C/C=C(/C#N)[C@H](O)[C@@H](C)C1 [borrelidin], the “effect on enzymatic activity of threonyl tRNA-synthetase” value (threonyl tRNA-synthetase) is given as “reduce the enzymatic activity” and the “effect on growth of E. coli” value (E. coli) is given as “inhibit the growth”.
